# From article PMC9329436, “Optimization of the 4-anilinoquin(az)oline scaffold as epidermal growth factor receptor (EGFR) inhibitors for chordoma utilizing a toxicology profiling assay platform” (Scientific Reports, 2022)
# Test system: HL60 cells
# Assay: AsedaSciences SYSTEMETRIC Cell Health Screen (flow cytometry toxicity profiling)
# Details: HL60, 4 h, 5 nM–100 µM, probability 0–1, n = 2
# From the text: To prioritize further optimization, in addition to cellular potency, we utilized the AsedaSciences® […]® Cell Health Screen. This live cell flow cytometry (FC) screen was developed to assess human safety risk for candidate pharmaceutical small molecules at the early hit-to-lead stage of development. The screen works by estimating the risk using a supervised machine learning (ML) classifier to assess a multiparametric cellular stress phenotype, produced by the test compound, relative to a training set of known compounds (Table S1). This screen has been designed for early pipeline risk estimation regardless of pharmaceutical class/disease type, so it uses HL60 as the reporter cell line.
# The ML classifier was trained with 300 historically known compounds (on market or withdrawn drugs, research compounds, etc.), which were divided into two outcome classes based upon literature, clinical trials, and market histories where applicable. This external curation informed an outcome of “high-risk” or “low-risk”. All 300 compounds were also processed through the automated FC screen, populating each of the two classes with frequency distributions of empirical cell-based phenotypes.
# To estimate human safety risk for an unknown compound, the ML classifier assesses the similarity of the test compound’s cell-based phenotype to the distributions of phenotypes in the two outcome classes. […] Phenotypes are derived from twelve FC detection parameters, including light scatter and a series of fluorescent physiological reporter dyes, that track cell stress-related endpoints.
# To produce the Cell Health Index, the ML classifier uses all twelve FC parameters simultaneously in a multidimensional logistic regression model, so the CHI contains the most predictive power. In addition to the Cell Health Index, Table 4 also reports probability scores for eight cell stress-related endpoints. These scores are produced individually by passing information to the ML classifier relating to parameters that inform that endpoint. For example, to produce the cell morphology (CM) score, the ML classifier only uses the FC detection parameters for forward scatter (informing change in cell diameter) and side scatter (informing change in optical granularity of the cell) to inform the model. Together, these eight endpoints provide a “biological fingerprint”, allowing assessment of the degree to which SAR series members behave differently across endpoints.
# In a 384-well platform, HL60 cells were exposed to a 10-step, 3 × dilution series of each test compound (5 nM–100 µM) for 4 h at 37 °C with 5% CO2. Each dilution series was screened in duplicate, occupying a total of 20 wells, allowing 16 test compounds to be assayed per plate. Each row contained one positive and one negative control well, for a total of 16 replicate positive/negative control pairs on each assay plate. Compound formatting, cell deposition, and dye application were performed robotically so that final assay conditions comprised 100,000 cells in a 40 µL volume. After the 4 h compound exposure, cells were immediately stained with a panel of fluorescent dyes that report physiological signatures of both mitochondrial dysfunction and gross cell stress. Fluorescence and forward/side-scatter data were collected using automated FC with no gating. FC data are processed by an automated algorithm for producing quality control measures and ML classification of compound phenotypes. • 2. HL60 cell culture production
# HL60 cells were produced as suspension cultures in glass 850 cm^2 roller bottles with vented caps, at 1 RPM, 5% CO2, and 37 °C. […] Culture density was maintained at or below 1 × 10^6 cells/mL.
Structure (SMILES),CC: Cell Cycle score,CM: Cell morphology score,CMI: Cell membrane integrity score,MMP: Mitochondrial membrane depolarization score,ROS: Reactive superoxide species score,GSH: Glutathione score,NMI1: Nuclear membrane integrity 1 score,NMI2: Nuclear membrane integrity 2 score
"CCCCc1oc2ccccc2c1C(=O)c1cc(I)c(OCCN(CC)CC)c(I)c1 [Amiodarone, reference compound]",0.96,0.97,0.80,0.87,0.19,–,–,–
"COc1ccc2cc3[n+](cc2c1OC)CCc1cc2c(cc1-3)OCO2 [Berberine, reference compound]",0.99,0.99,0.050,1.00,1.00,0.93,0.99,0.97
"O=C1CC2(CCCC2)CC(=O)N1CCCCN1CCN(c2ncccn2)CC1 [Buspirone, reference compound]",0.11,0.060,0.040,0.020,0.05,0.080,0.070,0.040
"Cc1ccc(-c2cc(C(F)(F)F)nn2-c2ccc(S(N)(=O)=O)cc2)cc1 [Celecoxib, reference compound]",0.61,0.56,0.94,0.51,0.96,0.36,0.53,0.51
"Clc1cccc(Cl)c1N=C1NCCN1 [Clonidine, reference compound]",0.060,0.00,0.030,0.010,0.040,0.10,0.15,0.040
"CN(C)CCOC(c1ccccc1)c1ccccc1 [Diphenhydramine, reference compound]",0.030,0.010,0.030,0.030,0.040,–,–,–
"CC(C)(C(=O)O)c1ccc(C(O)CCCN2CCC(C(O)(c3ccccc3)c3ccccc3)CC2)cc1 (centres unmarked) [Fexofenadine, reference compound]",0.020,0.00,0.040,0.020,0.16,–,–,–
"COc1cc2ncnc(Nc3ccc(F)c(Cl)c3)c2cc1OCCCN1CCOCC1 [Gefitinib, reference compound]",0.93,1.00,0.99,0.99,0.93,0.97,0.61,0.94
"CC(C(=O)O)c1cccc(C(=O)c2ccccc2)c1 (centres unmarked) [Ketoprofen, reference compound]",0.050,0.00,0.030,0.010,0.18,0.010,–,–
"CS(=O)(=O)CCNCc1ccc(-c2ccc3ncnc(Nc4ccc(OCc5cccc(F)c5)c(Cl)c4)c3c2)o1 [Lapatinib, reference compound]",0.93,1.00,1.00,1.00,0.90,0.96,0.97,0.92
"CCOC(=O)N1CCC(=C2c3ccc(Cl)cc3CCc3cccnc32)CC1 [Loratadine, reference compound]",0.84,0.36,0.70,0.65,0.85,–,–,–
"CCc1nn(CCCN2CCN(c3cccc(Cl)c3)CC2)c(=O)n1CCOc1ccccc1 [Nefazodone, reference compound]",0.97,0.97,1.00,1.00,1.00,0.99,0.73,0.87
"Cc1ccnc2c1NC(=O)c1cccnc1N2C1CC1 [Nevirapine, reference compound]",0.070,0.020,0.050,0.010,0.28,0.030,0.020,0.040
"CC1(C)NC(=O)N(c2ccc([N+](=O)[O-])c(C(F)(F)F)c2)C1=O [Nilutamide, reference compound]",0.68,0.040,0.060,0.42,0.090,0.040,0.21,0.52
"O=C(O)CCc1nc(-c2ccccc2)c(-c2ccccc2)o1 [Oxaprozin, reference compound]",0.060,0.00,0.090,0.000,0.16,0.030,0.040,0.12
"[H]/N=C(/N)N/C(=N/[H])NCCc1ccccc1 [Phenformin, reference compound]",0.28,0.74,0.27,0.37,0.77,0.17,0.82,0.080
"Cc1ccc(N(CC2=NCCN2)c2cccc(O)c2)cc1 [Phentolamine, reference compound]",0.040,0.00,0.16,0.29,0.11,0.17,0.64,0.79
"Cc1ccc(=O)n(-c2ccccc2)c1 [Pirfenidone, reference compound]",0.060,0.00,0.090,0.010,0.020,0.040,0.040,0.030
"CN1CCN(CCCN2c3ccccc3Sc3ccc(Cl)cc32)CC1 [Prochlorperazine, reference compound]",0.96,1.00,1.00,1.00,1.00,1.00,1.00,0.99

# Same assay, conditions: HL60, 4 h, 5 nM–100 µM, probability (0–1) of high-risk class, n = 2
row,Structure (SMILES),CHI: Cell Health Index
1,"COc1ccc2cc3[n+](cc2c1OC)CCc1cc2c(cc1-3)OCO2 [Berberine, reference compound]",0.82
2,"O=C1CC2(CCCC2)CC(=O)N1CCCCN1CCN(c2ncccn2)CC1 [Buspirone, reference compound]",0.22
3,"Cc1ccc(-c2cc(C(F)(F)F)nn2-c2ccc(S(N)(=O)=O)cc2)cc1 [Celecoxib, reference compound]",0.54
4,"Clc1cccc(Cl)c1N=C1NCCN1 [Clonidine, reference compound]",0.14
5,"COc1cc2ncnc(Nc3ccc(F)c(Cl)c3)c2cc1OCCCN1CCOCC1 [Gefitinib, reference compound]",0.80
6,"CS(=O)(=O)CCNCc1ccc(-c2ccc3ncnc(Nc4ccc(OCc5cccc(F)c5)c(Cl)c4)c3c2)o1 [Lapatinib, reference compound]",0.89
7,"CCc1nn(CCCN2CCN(c3cccc(Cl)c3)CC2)c(=O)n1CCOc1ccccc1 [Nefazodone, reference compound]",0.78
8,"Cc1ccnc2c1NC(=O)c1cccnc1N2C1CC1 [Nevirapine, reference compound]",0.18
9,"CC1(C)NC(=O)N(c2ccc([N+](=O)[O-])c(C(F)(F)F)c2)C1=O [Nilutamide, reference compound]",0.34
10,"[H]/N=C(/N)N/C(=N/[H])NCCc1ccccc1 [Phenformin, reference compound]",0.41
11,"Cc1ccc(=O)n(-c2ccccc2)c1 [Pirfenidone, reference compound]",0.17
